Source: patent publication US5614497A, “Peptide, production and use thereof” (Takeda Chemical Industries, Ltd., priority 1991, dated 1997)
*1 amine or outer side, *2 acyl side, *3 side chain or, on linkers, in order; H or OH if unused. Where a SMILES comes first, the peptide text is derived from it. [ ]: non-standard residue; d: D form. The star is where a group is joined. Tyr(3-F) = N[C@@H](Cc1ccc(O)c(F)c1)C(=O)O; Tyr(3-I) = N[C@@H](Cc1ccc(O)c(I)c1)C(=O)O; Phe(4-F) = N[C@@H](Cc1ccc(F)cc1)C(=O)O; Boc = CC(C)(C)OC(=O)*; CO = O=C([*:1])[*:2]; Ahx = NCCCCCC(=O)O; X1 = C1CCCN(*)CC1; βAla = NCCC(=O)O

The compounds below were run against endothelin receptors (assay: Receptor Binding Assay (displacement of radioactive-iodine-labeled endothelin-1 from swine heart membrane fraction)). Conditions: membrane fraction prepared from swine heart; endothelin-1 labeled with radioactive iodine; incubation at 25° C, 1 hour.
Description: The membrane fraction prepared from swine heart was diluted to 0.15 mg/ml with an assaying buffer and dispensed to assaying tubes at 100 μl per tube. To this membrane fraction suspension were added 2 μl of a solution of endothelin-1labeled with 5 nM radioactive iodine and 3 μl of a 50% dimethylsulfoxide solution of the subject peptide, followed by incubation at 25° C. After 1 hour, the suspension was diluted with 900 μl of an ice-cooled assaying buffer and centrifuged at 12,000×G for 10 minutes to separate supernatant and precipitate. The precipitate contained cell membranes and endothelin receptors embedded therein. The receptor-bound endothelin, labeled with radioactive iodine, was also recovered in the precipitate. The radioactive iodine in this precipitate was counted, using a gamma ray counter, to determine the amount of radioactive-iodine-labeled endothelin bound to the endothelin receptors. The results of the quantitative determination are shown in IC50 (M) below.

| Structure (SMILES) | IC50 |
| --- | --- |
| CC(C)C[C@H](NC(=O)OC(C)(C)C)C(=O)N[C@H](Cc1c[nH]c2ccccc12)C(=O)N[C@H](C)C(=O)NCCC(=O)N[C@@H](Cc1ccc(O)cc1)C(=O)N[C@@H](Cc1ccccc1)C(=O)O [Example 2, Boc-Leu-(D)Trp-(D)Ala-βAla-Tyr-Phe-OH] (Boc-L[dW][dA][βAla]YF-OH) | 9 nM |
| CC(C)C[C@H](NC(=O)OC(C)(C)C)C(=O)N[C@H](Cc1c[nH]c2ccccc12)C(=O)N[C@H](C)C(=O)NCCC(=O)N[C@@H](Cc1ccc(O)c(F)c1)C(=O)N[C@@H](Cc1ccc(F)cc1)C(=O)O [Example 38, Boc-Leu-(D)Trp-(D)Ala-βAla-(m-F)Tyr-(p-F)Phe-OH] (Boc-L[dW][dA][βAla][Tyr(3-F)][Phe(4-F)]-OH) | 60 nM |
| CC(C)C[C@H](NC(=O)OC(C)(C)C)C(=O)N[C@H](Cc1c[nH]c2ccccc12)C(=O)N[C@H](C)C(=O)NCCC(=O)N[C@@H](CCC(=O)O)C(=O)O [Reference Example 1, Boc-Leu-(D)Trp-(D)Ala-βAla-Glu--OH, reference compound] (Boc-L[dW][dA][βAla]E-OH) | 700 nM |
| CC(C)C[C@H](NC(=O)OC(C)(C)C)C(=O)N[C@H](Cc1c[nH]c2ccccc12)C(=O)N[C@H](C)C(=O)NCCC(=O)N[C@H](CC(C)C)C(=O)O [Reference Example 2, Boc-Leu-(D)Trp-(D)Ala-βAla-(D)Leu--OH, reference compound] (Boc-L[dW][dA][βAla][dL]-OH) | 420 nM |

Compounds with a lower IC50, results first:

| IC50 | Structure (SMILES) |
| --- | --- |
| 7.2 nM | CC(C)C[C@H](NC(=O)OC(C)(C)C)C(=O)N[C@H](Cc1c[nH]c2ccccc12)C(=O)N[C@H](C)C(=O)NCCCCCC(=O)N[C@@H](Cc1ccc(O)cc1)C(=O)N[C@@H](Cc1ccccc1)C(=O)O [Example 5, Boc-Leu-(D)Trp-(D)Ala-εAhx-Tyr-Phe-OH] (Boc-L[dW][dA][Ahx]YF-OH) |
| 4.6 nM | CC(C)C[C@H](NC(=O)OC(C)(C)C)C(=O)N[C@H](Cc1c[nH]c2ccccc12)C(=O)N[C@H](C)C(=O)NCCC(=O)N[C@@H](Cc1ccc(O)cc1)C(=O)N[C@H](Cc1ccccc1)C(=O)O [Example 1, Boc-Leu-(D)Trp-(D)Ala-βAla-Tyr-(D)Phe-OH] (Boc-L[dW][dA][βAla]Y[dF]-OH) |
| 0.71 nM | CC(C)C[C@H](NC(=O)N1CCCCCC1)C(=O)N[C@H](Cc1c[nH]c2ccccc12)C(=O)N[C@H](C)C(=O)NCCC(=O)N[C@@H](Cc1ccc(O)c(I)c1)C(=O)N[C@H](Cc1ccccc1)C(=O)O [Example 43, Hexamethyleneimino-CO-Leu-(D)Trp-(D)Ala-βAla-Tyr(I)-(D)Phe-OH] ({X1-CO}-L[dW][dA][βAla][Tyr(3-I)][dF]-OH) |
| 0.34 nM | CC(C)C[C@H](NC(=O)N1CCCCCC1)C(=O)N[C@H](Cc1c[nH]c2ccccc12)C(=O)N[C@H](C)C(=O)NCCC(=O)N[C@@H](Cc1ccc(O)cc1)C(=O)N[C@H](Cc1ccccc1)C(=O)O [Example 39, hexamethyleneimino-CO-Leu-(D)Trp-(D)Ala-βAla-Tyr-(D)Phe-OH] ({X1-CO}-L[dW][dA][βAla]Y[dF]-OH) |
